Data: patent US20240269139A1, “COMPOUNDS FOR TARGETED PROTEIN DEGRADATION OF KINASES” (DANA-FARBER CANCER INSTITUTE, INC., priority 2020, published 2024)
Read-outs that look alike come from different tables or passages of the source.

How the values were obtained:
Type in all cases: cell-based
[1] = target: protein kinases (human kinome) (Homo sapiens, UniProt Q9NSY1); details: BMP2K Q9NSY1
[2] = target: T1, protein kinases (human kinome) (Homo sapiens, UniProt O15197); details: for logFC: EPHB6 (O15197-1)
T1 sequence (O15197 32-1021): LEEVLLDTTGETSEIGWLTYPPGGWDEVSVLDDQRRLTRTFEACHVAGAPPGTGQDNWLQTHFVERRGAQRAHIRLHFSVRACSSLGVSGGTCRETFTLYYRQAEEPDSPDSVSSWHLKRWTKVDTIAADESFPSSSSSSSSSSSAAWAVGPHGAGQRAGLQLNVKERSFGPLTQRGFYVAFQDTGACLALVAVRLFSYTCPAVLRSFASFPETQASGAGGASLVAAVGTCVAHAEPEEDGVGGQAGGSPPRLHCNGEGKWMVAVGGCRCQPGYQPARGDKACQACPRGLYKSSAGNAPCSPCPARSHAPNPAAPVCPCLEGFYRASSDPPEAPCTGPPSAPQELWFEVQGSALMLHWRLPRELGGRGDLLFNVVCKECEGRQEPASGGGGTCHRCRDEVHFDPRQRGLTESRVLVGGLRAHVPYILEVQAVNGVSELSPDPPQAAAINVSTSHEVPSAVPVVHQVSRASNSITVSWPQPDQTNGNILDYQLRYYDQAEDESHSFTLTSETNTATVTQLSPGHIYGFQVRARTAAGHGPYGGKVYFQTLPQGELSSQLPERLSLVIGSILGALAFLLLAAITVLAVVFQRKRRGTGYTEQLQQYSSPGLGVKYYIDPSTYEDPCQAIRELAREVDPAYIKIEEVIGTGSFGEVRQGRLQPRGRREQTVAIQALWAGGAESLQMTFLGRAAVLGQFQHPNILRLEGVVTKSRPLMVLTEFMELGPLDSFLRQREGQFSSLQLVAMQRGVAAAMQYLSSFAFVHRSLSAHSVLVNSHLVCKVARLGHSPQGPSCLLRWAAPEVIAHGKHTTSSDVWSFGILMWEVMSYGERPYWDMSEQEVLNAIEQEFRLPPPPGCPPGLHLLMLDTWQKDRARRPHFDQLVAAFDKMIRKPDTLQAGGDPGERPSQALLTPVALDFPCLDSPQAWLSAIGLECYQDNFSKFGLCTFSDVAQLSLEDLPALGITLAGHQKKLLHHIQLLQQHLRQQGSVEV

[3] = target: protein kinases (human kinome) (Homo sapiens, UniProt P21127)
Sequence of protein kinases (human kinome) (Homo sapiens, UniProt P21127) (P21127 whole entry): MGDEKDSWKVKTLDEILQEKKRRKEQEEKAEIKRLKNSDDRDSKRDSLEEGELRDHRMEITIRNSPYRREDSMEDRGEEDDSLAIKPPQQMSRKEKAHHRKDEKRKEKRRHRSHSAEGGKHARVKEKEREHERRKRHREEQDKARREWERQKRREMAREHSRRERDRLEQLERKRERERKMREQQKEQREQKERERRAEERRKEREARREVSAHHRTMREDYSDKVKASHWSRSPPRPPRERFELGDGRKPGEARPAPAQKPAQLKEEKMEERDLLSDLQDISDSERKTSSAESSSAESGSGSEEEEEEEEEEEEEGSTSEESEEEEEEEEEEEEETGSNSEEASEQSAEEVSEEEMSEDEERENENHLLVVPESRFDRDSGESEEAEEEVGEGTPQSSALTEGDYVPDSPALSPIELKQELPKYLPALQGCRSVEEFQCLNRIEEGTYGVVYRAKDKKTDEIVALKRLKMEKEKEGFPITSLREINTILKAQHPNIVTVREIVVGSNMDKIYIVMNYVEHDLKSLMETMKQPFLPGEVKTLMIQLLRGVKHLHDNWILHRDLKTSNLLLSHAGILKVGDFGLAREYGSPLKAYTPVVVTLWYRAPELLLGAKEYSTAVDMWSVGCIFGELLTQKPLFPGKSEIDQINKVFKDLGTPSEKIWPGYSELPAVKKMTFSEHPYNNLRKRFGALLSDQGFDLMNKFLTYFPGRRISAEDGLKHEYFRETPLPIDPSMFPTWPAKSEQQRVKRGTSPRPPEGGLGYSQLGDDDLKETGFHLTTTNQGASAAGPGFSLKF

[4] = target: T2, protein kinases (human kinome) (Homo sapiens, UniProt Q8IVH8); details: for logFC: MAP4K3 Q8IVH8; for logFC MAP4K3: MAP4K3 Q81VH8
T2 sequence (Q8IVH8 1-894): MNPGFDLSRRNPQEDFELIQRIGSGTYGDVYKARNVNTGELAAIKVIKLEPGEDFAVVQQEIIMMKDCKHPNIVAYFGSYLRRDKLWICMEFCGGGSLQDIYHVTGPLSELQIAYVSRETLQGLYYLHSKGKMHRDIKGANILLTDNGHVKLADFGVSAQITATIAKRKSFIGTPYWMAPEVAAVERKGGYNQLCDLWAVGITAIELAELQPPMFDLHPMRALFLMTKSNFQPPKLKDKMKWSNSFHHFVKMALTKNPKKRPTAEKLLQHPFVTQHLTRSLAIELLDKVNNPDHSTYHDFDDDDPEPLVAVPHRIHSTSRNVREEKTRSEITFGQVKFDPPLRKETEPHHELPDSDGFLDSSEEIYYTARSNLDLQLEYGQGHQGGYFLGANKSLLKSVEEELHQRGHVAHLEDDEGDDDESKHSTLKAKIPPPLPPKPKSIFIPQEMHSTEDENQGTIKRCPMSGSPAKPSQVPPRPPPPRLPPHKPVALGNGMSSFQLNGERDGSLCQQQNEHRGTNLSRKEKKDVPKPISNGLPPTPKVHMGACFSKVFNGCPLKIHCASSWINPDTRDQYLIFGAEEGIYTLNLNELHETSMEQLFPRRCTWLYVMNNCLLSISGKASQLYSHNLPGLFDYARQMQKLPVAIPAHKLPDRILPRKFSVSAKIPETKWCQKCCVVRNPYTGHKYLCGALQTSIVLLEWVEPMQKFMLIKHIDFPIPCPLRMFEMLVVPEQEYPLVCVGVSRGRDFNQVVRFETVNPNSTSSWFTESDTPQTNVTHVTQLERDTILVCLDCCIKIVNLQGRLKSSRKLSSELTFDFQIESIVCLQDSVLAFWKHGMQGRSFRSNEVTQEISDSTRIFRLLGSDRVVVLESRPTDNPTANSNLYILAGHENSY

[5] = target: protein kinases (human kinome) (Homo sapiens, UniProt O94921); details: experiment wp076
Sequence of protein kinases (human kinome) (Homo sapiens, UniProt O94921) (O94921 whole entry): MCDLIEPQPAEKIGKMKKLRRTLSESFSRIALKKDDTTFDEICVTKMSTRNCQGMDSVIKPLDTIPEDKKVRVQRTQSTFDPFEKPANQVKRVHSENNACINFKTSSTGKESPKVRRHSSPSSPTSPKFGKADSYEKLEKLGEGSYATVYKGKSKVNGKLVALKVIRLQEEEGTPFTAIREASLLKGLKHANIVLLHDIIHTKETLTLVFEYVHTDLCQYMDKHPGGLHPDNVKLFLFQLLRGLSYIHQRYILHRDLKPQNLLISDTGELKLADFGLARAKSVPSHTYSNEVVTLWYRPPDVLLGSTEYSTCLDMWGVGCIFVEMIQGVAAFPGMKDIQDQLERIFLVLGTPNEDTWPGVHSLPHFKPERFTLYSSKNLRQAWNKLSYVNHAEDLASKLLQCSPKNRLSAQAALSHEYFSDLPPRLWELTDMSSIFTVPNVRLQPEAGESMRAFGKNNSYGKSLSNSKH

[6] = target: protein kinases (human kinome) (Homo sapiens, UniProt O94804); details: STK10 (O94804)
Sequence of protein kinases (human kinome) (Homo sapiens, UniProt O94804) (O94804 whole entry): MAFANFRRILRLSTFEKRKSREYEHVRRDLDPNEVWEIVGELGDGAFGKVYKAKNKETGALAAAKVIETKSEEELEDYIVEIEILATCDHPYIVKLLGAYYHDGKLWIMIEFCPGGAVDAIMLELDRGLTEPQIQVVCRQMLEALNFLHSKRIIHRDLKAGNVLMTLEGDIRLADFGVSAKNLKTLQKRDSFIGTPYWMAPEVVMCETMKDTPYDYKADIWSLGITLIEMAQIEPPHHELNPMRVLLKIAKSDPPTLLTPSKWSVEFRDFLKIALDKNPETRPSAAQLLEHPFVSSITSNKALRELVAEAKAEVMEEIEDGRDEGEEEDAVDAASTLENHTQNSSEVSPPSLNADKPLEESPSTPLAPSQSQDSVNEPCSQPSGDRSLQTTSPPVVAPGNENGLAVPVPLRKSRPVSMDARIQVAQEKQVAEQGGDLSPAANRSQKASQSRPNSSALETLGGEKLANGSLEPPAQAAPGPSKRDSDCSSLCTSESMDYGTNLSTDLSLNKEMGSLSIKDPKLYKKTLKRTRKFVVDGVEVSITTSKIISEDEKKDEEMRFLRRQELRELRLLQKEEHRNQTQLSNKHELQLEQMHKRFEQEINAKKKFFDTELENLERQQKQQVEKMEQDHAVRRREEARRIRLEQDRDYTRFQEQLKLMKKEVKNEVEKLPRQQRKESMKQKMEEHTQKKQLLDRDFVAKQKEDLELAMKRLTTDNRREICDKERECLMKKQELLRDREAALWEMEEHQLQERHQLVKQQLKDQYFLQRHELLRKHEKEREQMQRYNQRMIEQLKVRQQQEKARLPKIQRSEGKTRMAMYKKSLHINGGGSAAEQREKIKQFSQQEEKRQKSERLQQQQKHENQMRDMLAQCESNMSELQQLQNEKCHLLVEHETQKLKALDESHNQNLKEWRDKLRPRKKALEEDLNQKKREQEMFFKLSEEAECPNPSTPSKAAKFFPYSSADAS

[7] = CDK11B P21127-1, experiment wp045
[8] = CDK11B P21127-1, experiment wp105
[9] = CDK11B P21127-1, experiment wp117
[10] = CDK11B P21127-1, experiment wp160, 4 hr
[11] = CDK11B P21127-1, experiment wp160, 8 hr
[12] = CDK11B P21127-1, experiment wp172
[13] = CDK11B P21127-1, experiment wp168

Sequence of protein kinases (human kinome) (Homo sapiens, UniProt Q9NSY1) (Q9NSY1 whole entry): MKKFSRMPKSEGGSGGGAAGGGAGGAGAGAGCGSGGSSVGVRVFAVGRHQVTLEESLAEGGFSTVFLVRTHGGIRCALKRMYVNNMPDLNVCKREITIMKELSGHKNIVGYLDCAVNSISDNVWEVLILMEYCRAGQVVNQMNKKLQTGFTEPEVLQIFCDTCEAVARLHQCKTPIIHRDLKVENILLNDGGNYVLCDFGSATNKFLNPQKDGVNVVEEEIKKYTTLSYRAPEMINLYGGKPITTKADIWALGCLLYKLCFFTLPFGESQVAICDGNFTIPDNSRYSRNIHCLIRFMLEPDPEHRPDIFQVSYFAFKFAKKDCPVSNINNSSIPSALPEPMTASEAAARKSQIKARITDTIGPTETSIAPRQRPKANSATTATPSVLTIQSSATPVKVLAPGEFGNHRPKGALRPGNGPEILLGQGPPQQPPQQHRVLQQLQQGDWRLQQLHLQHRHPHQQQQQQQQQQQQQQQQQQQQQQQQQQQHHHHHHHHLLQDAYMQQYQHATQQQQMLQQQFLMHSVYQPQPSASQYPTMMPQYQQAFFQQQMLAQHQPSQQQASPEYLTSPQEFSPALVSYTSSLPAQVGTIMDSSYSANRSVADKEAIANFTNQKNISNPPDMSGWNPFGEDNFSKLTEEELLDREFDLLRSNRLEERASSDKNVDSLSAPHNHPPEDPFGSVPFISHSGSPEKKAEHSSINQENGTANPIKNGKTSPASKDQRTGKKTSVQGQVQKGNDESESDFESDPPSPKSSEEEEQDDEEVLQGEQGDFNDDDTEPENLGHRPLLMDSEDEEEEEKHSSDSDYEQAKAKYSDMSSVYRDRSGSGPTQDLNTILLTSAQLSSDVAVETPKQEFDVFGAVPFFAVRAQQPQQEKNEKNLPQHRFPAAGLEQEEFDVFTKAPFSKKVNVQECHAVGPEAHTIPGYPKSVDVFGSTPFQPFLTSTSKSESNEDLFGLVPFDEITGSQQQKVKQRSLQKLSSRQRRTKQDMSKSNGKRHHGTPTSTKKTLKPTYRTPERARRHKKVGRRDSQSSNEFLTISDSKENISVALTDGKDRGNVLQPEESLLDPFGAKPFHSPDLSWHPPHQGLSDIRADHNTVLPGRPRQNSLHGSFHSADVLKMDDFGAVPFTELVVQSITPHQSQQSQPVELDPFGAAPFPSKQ

In the case of `O=C(COc1cccc2c1C(=O)N(C1CCC(=O)NC1=O)C2=O)NCCCCCCCN1CCc2cc(Nc3ncc(C4CC4)c(NCCCNC(=O)C4CCC4)n3)ccc2C1` (stereo not drawn) [BSJ.04.178], the logFC ([1]; experiment wp134) is reported as −0.6929 and the “logFC BMP2K” value ([1]; experiment wp134) is reported as −0.6929.
In the case of `CS(=O)(=O)Nc1cccc(-c2csc3cnc(Nc4ccc(N5CCN(CCCCCOc6cccc7c6C(=O)N(C6CCC(=O)NC6=O)C7=O)CC5)cc4)nc23)c1` (stereo not drawn) [DB0614, N-(3-(2-((4-(4-(5-((2-(2,6-Dioxopiperidin-3-yl)-1,3-dioxoisoindolin-4-yl)oxy)pentyl)piperazin-1-yl)phenyl)amino)thieno[3,2-d]pyrimidin-7-yl)phenyl)methanesulfonamide], the logFC ([1]; experiment wp045) is reported as −0.3909 and the “logFC BMP2K” value ([1]; experiment wp045) is reported as −0.3909.
For `Cc1ccc(NC(=O)c2cccc(C(F)(F)F)c2)cc1N1Cc2cnc(Nc3ccc(N4CCN(Cc5cn(CCCCCOc6cccc7c6C(=O)N(C6CCC(=O)NC6=O)C7=O)nn5)CC4)nc3)nc2N(C)C1=O` (stereo not drawn) [DB0646, N-(3-(7-((6-(4-((1-(5-((2-(2,6-Dioxopiperidin-3-yl)-1,3-dioxoisoindolin-4-yl)oxy)pentyl)-1H-1,2,3-triazol-4-yl)methyl)piperazin-1-v)pyridin-3-yl)amino)-1-methyl-2-oxo-1,4-dihydropyrimido[4,5-d]pyrimidin-3(2H)-yl)-4-methylphenyl)-3-(trifluoromethyl)benzamide], the logFC ([2]; experiment wp160, 4 hr) was −0.3396, the logFC ([2]; experiment wp160, 8 hr) was −0.6548 and the “logFC of EPHB6 (O15197-1)” value ([2]; experiment wp160, 4 hr) was −0.3396. The “logFC of EPHB6 (O15197-1)” value ([2]; experiment wp160, 8 hr) was −0.6548, the logFC [3, 7] was −0.4555 and the “logFC CDK11B” value [3, 7] was −0.4555. The logFC [3, 8] was −0.3542, the “logFC CDK11B” value [3, 8] was −0.3542 and the logFC [3, 9] was −0.4695. The “logFC CDK11B” value [3, 9] was −0.4695, the logFC [3, 10] was −0.5122 and the “logFC CDK11B” value [3, 10] was −0.5122. For the same compound, the logFC [3, 11] was −0.644, the “logFC CDK11B” value [3, 11] was −0.644 and the logFC [3, 12] was −0.4624. For the same compound, the “logFC CDK11B” value [3, 12] was −0.4624, the logFC ([3]; CDK11B P21127, experiment wp152) was −0.5948 and the “logFC of CDK11B (P21127)” value ([3]; experiment wp152) was −0.5948.
For `Cc1ccc(NC(=O)c2cccc(C(F)(F)F)c2)cc1N1Cc2cnc(Nc3ccc(N4CCN(CCCOc5cccc6c5C(=O)N(C5CCC(=O)NC5=O)C6=O)CC4)nc3)nc2N(C)C1=O` (stereo not drawn) [DB0662], the logFC ([2]; experiment wp168) was −0.736, the “logFC of EPHB6 (O15197-1)” value ([2]; Experiment wp168) was −0.736 and the logFC [3, 13] was −0.5946. For the same compound, the “logFC CDK11B” value [3, 13] was −0.5946.
In the case of `Cc1ccc(NC(=O)c2cccc(C(F)(F)F)c2)cc1N1Cc2cnc(Nc3ccc(N4CCN(CCCCC(=O)N[C@H](C(=O)N5C[C@H](O)C[C@H]5C(=O)N[C@@H](C)c5ccc(-c6scnc6C)cc5)C(C)(C)C)CC4)nc3)nc2N(C)C1=O` [DB1113], the logFC [3, 13] is reported as −0.8736, the “logFC CDK11B” value [3, 13] is reported as −0.8736 and the logFC ([4]; experiment wp168) is reported as −1.385. For the same compound, the “logFC MAP4K3” value ([4]; experiment wp168) was −1.385.
`Cc1ncsc1-c1ccc([C@H](C)NC(=O)[C@@H]2C[C@@H](O)CN2C(=O)[C@@H](NC(=O)CCOCCOCCN2CCN(c3ccc(Nc4ncc(Cl)c(Nc5ccccc5S(=O)(=O)C(C)C)n4)cc3)CC2)C(C)(C)C)cc1` [FMF.06.098.1] gave a logFC ([4]; experiment wp108) of −0.814, a logFC ([4]; experiment wp114) of −0.4146 and a logFC ([4]; experiment wp131) of −0.7898. The “logFC MAP4K3” value ([4]; experiment wp108) was −0.814, the “logFC MAP4K3” value ([4]; experiment wp114) was −0.4146 and the “logFC MAP4K3” value ([4]; experiment wp131) was −0.7898.
`Cc1cnc(Nc2ccc(N3CCN(CCOCCOCCNC(=O)COc4cccc5c4C(=O)N(C4CCC(=O)NC4=O)C5=O)CC3)cc2)nc1Nc1cccc(S(=O)(=O)NC(C)(C)C)c1` (stereo not drawn) [JWG.118] was tested, and the logFC ([1]; experiment wp071) was −0.3528 and the “logFC BMP2K” value ([1]; experiment wp071) was −0.3528.
`O=C1CCC(N2C(=O)c3cccc(NCCCCCCCCN4CCC(NC(=O)c5[nH]ncc5NC(=O)c5c(Cl)cccc5Cl)CC4)c3C2=O)C(=O)N1` (stereo not drawn) [MFH.5.126.1] was tested, and the logFC ([5]; CDK14 (O94921-1)) was −0.3413 and the “logFC of CDK14 (O94921-1)” value [5] was −0.3413.
With `Cn1c(=O)c(-c2c(Cl)cccc2Cl)cc2cnc(Nc3ccc(OCCNC(=O)CCCCCCNC(=O)COc4cccc5c4C(=O)N(C4CCC(=O)NC4=O)C5=O)cc3)nc21` (stereo not drawn) [SB1.G.192.1] the logFC ([2]; experiment wp071) was −0.6259, the logFC ([2]; experiment wp131) was −0.5189 and the “logFC of EPHB6 (O15197-1)” value ([2]; experiment wp071) was −0.6259. The “logFC of EPHB6 (O15197-1)” value ([2]; experiment wp131) was −0.5189.
`CC(C)S(=O)(=O)c1ccccc1Nc1nc(Nc2ccc(N3CCN(CCOCCNC(=O)CNc4ccc5c(c4)C(=O)N(C4CCC(=O)NC4=O)C5=O)CC3)cc2)ncc1Cl` (stereo not drawn) [SK.3.93] was tested, and the logFC ([1]; experiment wp016) was −0.4575 and the “logFC BMP2K” value ([1]; experiment wp016) was −0.4575.
Work on `CC(C)S(=O)(=O)c1ccccc1Nc1nc(Nc2ccc(N3CCN(CCOCCOCCNC(=O)CNc4cccc5c4C(=O)N(C4CCC(=O)NC4=O)C5=O)CC3)cc2)ncc1Cl` (stereo not drawn) [TL12.186] yielded a logFC ([6]; experiment wp016) of −0.3819, a logFC ([6]; experiment wp016, direction down) of −0.3819 and a logFC ([4]; experiment wp131) of −0.6275. The logFC ([4]; experiment wp137) was −0.3997, the “logFC MAP4K3” value ([4]; experiment wp131) was −0.6275 and the “logFC MAP4K3” value ([4]; experiment wp137) was −0.3997.
`CC(C)S(=O)(=O)c1ccccc1Nc1nc(Nc2ccc(N3CCN(CCOCCOCCC(=O)NCCNc4cccc5c4CN(C4CCC(=O)NC4=O)C5=O)CC3)cc2)ncc1Cl` (stereo not drawn) [TL13.97] was tested, and the logFC ([6]; experiment wp137) was −0.3477 and the logFC ([6]; experiment wp137, direction down) was −0.3477.
Work on `Nc1ncc(-c2ccc(S(=O)(=O)N(CCCNC(=O)CCOCCOCCOCCOCCOCCNc3cccc4c3C(=O)N(C3CCC(=O)NC3=O)C4=O)C3CC3)cc2)cc1-c1ccc2c(c1)CCNC2=O` (stereo not drawn) [WH.10417.099] yielded a logFC ([6]; experiment wp056) of −0.4923, a logFC ([6]; experiment wp056, direction down) of −0.4923 and a logFC ([6]; experiment wp103) of −0.4751. For the same compound, the logFC ([6]; experiment wp103, direction down) was −0.4751, the logFC ([6]; experiment wp107) was −0.5661 and the logFC ([6]; experiment wp107, direction down) was −0.5661.
